# Assay results as given in patent US20100298141A1, “SUBSTITUTED PYRIDINE N-OXIDE HERBICIDES” (E. I. DU PONT DE NEMOURS AND COMPANY, priority 2007, published 2010).
# Legend:
# barnyardgrass = test: Test A pre-/postemergence greenhouse test; format: in vivo, Echinochloa crus-galli; details: for Barnyardgrass plant response rating: 0 to 100 scale; for Plant response rating, Barnyardgrass: 0 to 100 scale where 0 is no effect and 100 is complete control
# How it was run: (§1)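 Planting was into mixed loam soil and sand; preemergence treatment followed as a directed soil spray. Concurrently, emerged plants (one- to two-leaf, 2–10 cm) received postemergence applications of identically formulated compound (non-phytotoxic solvent, surfactant). After approximately ten days under greenhouse conditions, injury was judged by eye against untreated plants.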
# velvetleaf = test: Test A pre-/postemergence greenhouse test; format: in vivo, Abutilon theophrasti; details: for Velvetleaf plant response rating: 0 to 100 scale; for Plant response rating, Velvetleaf: 0 to 100 scale where 0 is no effect and 100 is complete control
# How it was run: as §1
# green foxtail = test: Test C pre-/postemergence test; format: in vivo, Setaria viridis; details: for Plant response rating, Foxtail, Green: 31 g ai/ha, scale 0 to 100 (0 no effect, 100 complete control)
# How it was run: (§2)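 Test chemicals were formulated with surfactant in a non-phytotoxic solvent and sprayed both on freshly planted seeds (preemergence) and on 1- to 4-leaf plants of 2–18 cm (postemergence). Flooded-paddy pots received compound directly into 3 cm of standing water, maintained for the test.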
# Italian ryegrass = test: Test C pre-/postemergence test; format: in vivo, Lolium multiflorum; details: for Plant response rating, Ryegrass, Italian: 31 g ai/ha, scale 0 to 100 (0 no effect, 100 complete control)
# How it was run: as §2
# Russian thistle = test: Test C pre-/postemergence test; format: in vivo, Salsola kali; details: for Plant response rating, Russian Thistle: 31 g ai/ha, scale 0 to 100 (0 no effect, 100 complete control)
# Source text: Seeds of plant species selected from blackgrass (Alopecurus myosuroides), downy brome (Bromus tectorum), green foxtail (Setaria viridis), Italian ryegrass (Lolium multiflorum), wheat (Triticum aestivum), wild oat (Avena fatua), catchweed bedstraw (Galium aparine), Russian thistle (Salsola kali), […] (Cynodon dactylon), Surinam grass (Brachiaria decumbens), cocklebur (Xanthium strumarium), corn (Zea mays), crabgrass (Digitaria sanguinalis), woolly cupgrass (Eriochloa villosa), giant foxtail (Setaria faberii), Goosegrass (Eleusin indica), johnsongrass (Sorghum halepense), kochia (Kochia scoparia), lambsquarters (Chenopodium album), morningglory (Ipomoea coccinea), eastern black nightshade (Solanum ptycanthum), yellow nutsedge (Cyperus esculentus), pigweed (Amaranthus retroflexus), common ragweed (Ambrosia elation), soybean (Glycine max), common (oilseed) sunflower (Helianthus annuus), and velvetleaf (Abutilon theophrasti) were planted and treated preemergence with test chemicals formulated in a non-phytotoxic solvent mixture which included a surfactant. At the same time, plants selected from these crop and weed species and also winter barley (Hordeum vulgare), canarygrass (Phalaris minor), and chickweed (Stellaria media) were treated with postemergence applications of some of the test chemicals formulated in the same manner. Plants ranged in height from 2 to 18 cm (1- to 4-leaf stage) for postemergence treatments. […] At time of treatment, test pots were flooded to 3 cm above the soil surface, treated by application of test compounds directly to the paddy water, and then maintained at that water depth for the duration of the test. […] A dash (-) response means no test result.
# goosegrass = test: Test F preemergence test; format: in vivo, Eleusine indica; details: scale 0 to 100
# Source text: (§3) Seeds of plant species selected from bermudagrass (Cynodon dactylon), Surinam grass (Brachiaria decumbens), large crabgrass (Digitaria sanguinalis), green foxtail (Setaria viridis), goosegrass (Eleusine indica), johnsongrass (Sorghum halepense), kochia (Kochia scoparia), pitted morningglory (Ipomoea lacunosa), purple nutsedge (Cyperus rotundus), common ragweed (Ambrosia elation), mustard (Brassica nigra), guineagrass (Panicum maximum), […] (Paspalum dilatatum), barnyardgrass (Echinochloa crus-galli), southern sandbur (Cenchrus echinatus), common sowthistle (Sonchus oleraceous), prickly […] spinosa), Italian ryegrass (Lolium multiflorum), common purslane (Portulaca oleracea), broadleaf signalgrass (Brachiaria platyphylla), common groundsel (Senecio vulgaris), common chickweed (Stellaria media), Virginia dayflower (Commelina virginica), annual bluegrass (Poa annua), naked crabgrass (Digitaria nuda), […] cochinchinensis), quackgrass (Elytrigia repens), Canada horseweed (Conyza canadensis), field bindweed (Convolvulus arvensis), […] (Bidens bipinnata), common mallow (Malva sylvestris), Russian thistle (Salsola kali), and sugarcane (Saccharum officinarum) were planted and treated preemergence with test chemicals formulated in a non-phytotoxic solvent mixture which included a surfactant. At a different time, sugarcane was treated with postemergence applications of some of the test chemicals formulated in the same manner. Plants were approximately 3- to 4-leaf stage for the postemergence treatments. Treated plants and controls were maintained in a greenhouse for 14 to 21 days, after which time all species were compared to controls and visually evaluated. […] A dash (-) response means no test result.
# johnsongrass = test: Test F preemergence test; format: in vivo, Sorghum halepense; details: scale 0 to 100
# Source text: as §3
# kochia = test: Test F preemergence test; format: in vivo, Kochia scoparia; details: scale 0 to 100
# Source text: as §3
# purple nutsedge = test: Test F preemergence test; format: in vivo, Cyperus rotundus; details: scale 0 to 100; for Plant response rating, Purple Nutsedge: Preemergence
# Source text: as §3
# dallisgrass = test: Test F preemergence test; format: in vivo, Paspalum dilatatum; details: scale 0 to 100
# Source text: as §3
# broadleaf signalgrass = test: Test F preemergence test; format: in vivo, Brachiaria platyphylla; details: scale 0 to 100
# Source text: as §3
# Virginia dayflower = test: Test F preemergence test; format: in vivo, Commelina virginica; details: scale 0 to 100
# Source text: as §3
# itchgrass = test: Test F preemergence test; format: in vivo, Rottboellia cochinchinensis; details: scale 0 to 100
# Source text: as §3
# [1] = Postemergence, 125 g ai/ha, 0 is no effect, 100 is complete control
# [2] = Postemergence, 500 g ai/ha, 0 is no effect, 100 is complete control
# [3] = Preemergence, 125 g ai/ha, 0 no effect, 100 complete control
# [4] = 62 g ai/ha, Preemergence, scale 0 to 100
# [5] = 125 g ai/ha, preemergence, scale 0 (no effect) to 100 (complete control)
# [6] = preemergence, 250 g ai/ha, scale 0 (no effect) to 100 (complete control)
# [7] = Preemergence, 500 g ai/ha, 0 no effect, 100 complete control
smiles,measurement,setting,value
Cn1nc(C(F)(F)F)c(C(Cl)S(=O)(=O)c2cccc[n+]2[O-])c1OCC(F)(F)F (racemic) [Compound 36],Barnyardgrass plant response rating,barnyardgrass; [1],40
same,Barnyardgrass plant response rating,barnyardgrass; [2],80
same,Barnyardgrass plant response rating,barnyardgrass; [3],100
same,"Plant response rating, Barnyardgrass","barnyardgrass; Preemergence, 500 g ai/ha",100
same,Velvetleaf plant response rating,velvetleaf; [1],0
same,Velvetleaf plant response rating,velvetleaf; [2],40
same,Velvetleaf plant response rating,velvetleaf; [3],40
same,"Plant response rating, Velvetleaf","velvetleaf; Preemergence, 500 g ai/ha",70
same,"Foxtail, Green plant response rating",green foxtail; [4],70
same,"Foxtail, Green plant response rating",green foxtail; [5],75
same,"Foxtail, Green plant response rating",green foxtail; [6],100
same,"Ryegrass, Italian plant response rating",Italian ryegrass; [4],98
same,"Ryegrass, Italian plant response rating",Italian ryegrass; [5],100
same,"Plant response rating, Ryegrass, Italian",Italian ryegrass; Preemergence,30
same,"Ryegrass, Italian plant response rating",Italian ryegrass; [6],100
same,"Plant response rating, Russian Thistle",Russian thistle; Preemergence,0
same,Russian Thistle plant response rating,Russian thistle; [6],60
C#CCOc1c(CS(=O)(=O)c2cccc[n+]2[O-])c(C(F)(F)F)nn1C [Compound 103],"Plant response rating, Barnyardgrass","barnyardgrass; Postemergence, 125 g ai/ha",80
same,Barnyardgrass plant response rating,barnyardgrass; [2],90
same,Barnyardgrass plant response rating,barnyardgrass; [3],90
same,Barnyardgrass plant response rating,barnyardgrass; [7],100
same,"Plant response rating, Velvetleaf","velvetleaf; Postemergence, 125 g ai/ha",40
same,Velvetleaf plant response rating,velvetleaf; [2],70
same,Velvetleaf plant response rating,velvetleaf; [3],20
same,Velvetleaf plant response rating,velvetleaf; [7],80
same,"Foxtail, Green plant response rating",green foxtail; [4],98
same,"Foxtail, Green plant response rating",green foxtail; [5],100
same,"Plant response rating, Foxtail, Green",green foxtail; Preemergence,60
same,"Foxtail, Green plant response rating",green foxtail; [6],100
same,"Ryegrass, Italian plant response rating",Italian ryegrass; [4],50
same,"Ryegrass, Italian plant response rating",Italian ryegrass; [5],55
same,"Plant response rating, Ryegrass, Italian",Italian ryegrass; Preemergence,0
same,"Ryegrass, Italian plant response rating",Italian ryegrass; [6],60
same,Russian Thistle plant response rating,Russian thistle; [4],100
same,Russian Thistle plant response rating,Russian thistle; [5],100
same,"Plant response rating, Russian Thistle",Russian thistle; Preemergence,100
same,Russian Thistle plant response rating,Russian thistle; [6],100
Cc1cc[n+]([O-])c(S(=O)(=O)Cc2c(C(F)(F)F)nn(C)c2OC(C)C(F)(F)F)c1 (stereo not drawn) [Compound 96],"Plant response rating, Barnyardgrass","barnyardgrass; Postemergence, 125 g ai/ha",60
same,Barnyardgrass plant response rating,barnyardgrass; [2],90
same,Barnyardgrass plant response rating,barnyardgrass; [3],90
same,"Plant response rating, Barnyardgrass","barnyardgrass; Preemergence, 500 g ai/ha",100
same,"Plant response rating, Velvetleaf","velvetleaf; Postemergence, 125 g ai/ha",50
same,Velvetleaf plant response rating,velvetleaf; [2],60
same,Velvetleaf plant response rating,velvetleaf; [3],40
same,Velvetleaf plant response rating,velvetleaf; [7],100
same,"Foxtail, Green plant response rating",green foxtail; [4],95
same,"Foxtail, Green plant response rating",green foxtail; [5],98
same,"Plant response rating, Foxtail, Green",green foxtail; Preemergence,95
same,"Foxtail, Green plant response rating",green foxtail; [6],100
same,"Ryegrass, Italian plant response rating",Italian ryegrass; [4],98
same,"Ryegrass, Italian plant response rating",Italian ryegrass; [5],100
same,"Plant response rating, Ryegrass, Italian",Italian ryegrass; Preemergence,60
same,"Ryegrass, Italian plant response rating",Italian ryegrass; [6],100
same,Russian Thistle plant response rating,Russian thistle; [4],50
same,Russian Thistle plant response rating,Russian thistle; [5],80
same,"Plant response rating, Russian Thistle",Russian thistle; Preemergence,0
same,Russian Thistle plant response rating,Russian thistle; [6],100
Cn1nc(C(F)(F)F)c(C(Cl)S(=O)(=O)c2cccc[n+]2[O-])c1OC(F)F (stereo not drawn) [Compound 51],"Plant response rating, Barnyardgrass","barnyardgrass; Postemergence, 125 g ai/ha",50
same,Barnyardgrass plant response rating,barnyardgrass; [2],80
same,Barnyardgrass plant response rating,barnyardgrass; [3],90
same,"Plant response rating, Barnyardgrass","barnyardgrass; Preemergence, 500 g ai/ha",100
same,"Plant response rating, Velvetleaf","velvetleaf; Postemergence, 125 g ai/ha",60
same,Velvetleaf plant response rating,velvetleaf; [2],70
same,Velvetleaf plant response rating,velvetleaf; [3],60
same,"Plant response rating, Velvetleaf","velvetleaf; Preemergence, 500 g ai/ha",70
same,"Foxtail, Green plant response rating",green foxtail; [4],85
same,"Foxtail, Green plant response rating",green foxtail; [5],85
same,"Plant response rating, Foxtail, Green",green foxtail; Preemergence,65
same,"Foxtail, Green plant response rating",green foxtail; [6],100
same,"Ryegrass, Italian plant response rating",Italian ryegrass; [4],30
same,"Ryegrass, Italian plant response rating",Italian ryegrass; [5],80
same,"Plant response rating, Ryegrass, Italian",Italian ryegrass; Preemergence,0
same,"Ryegrass, Italian plant response rating",Italian ryegrass; [6],80
same,Russian Thistle plant response rating,Russian thistle; [4],100
same,Russian Thistle plant response rating,Russian thistle; [5],100
same,"Plant response rating, Russian Thistle",Russian thistle; Preemergence,40
same,Russian Thistle plant response rating,Russian thistle; [6],100
Cn1nc(C(F)(F)F)c(CS(=O)(=O)c2cccc[n+]2[O-])c1OCC(F)(F)F [Compound 29],Barnyardgrass plant response rating,barnyardgrass; [1],80
same,Barnyardgrass plant response rating,barnyardgrass; [2],90
same,Barnyardgrass plant response rating,barnyardgrass; [3],100
same,"Plant response rating, Barnyardgrass","barnyardgrass; Preemergence, 500 g ai/ha",100
same,Velvetleaf plant response rating,velvetleaf; [1],40
same,Velvetleaf plant response rating,velvetleaf; [2],70
same,Velvetleaf plant response rating,velvetleaf; [3],40
same,"Plant response rating, Velvetleaf","velvetleaf; Preemergence, 500 g ai/ha",100
same,"Foxtail, Green plant response rating",green foxtail; [4],100
same,"Plant response rating, Foxtail, Green",green foxtail; Preemergence,85
same,"Plant response rating (0 to 100), Foxtail, Green","green foxtail; Preemergence, 250 g ai/ha",100
same,"Ryegrass, Italian plant response rating",Italian ryegrass; [4],85
same,"Plant response rating, Ryegrass, Italian",Italian ryegrass; Preemergence,60
same,Goosegrass plant response rating,"goosegrass; 62 g ai/ha, Preemergence",100
same,Goosegrass plant response rating,"goosegrass; 125 g ai/ha, preemergence",100
same,"Plant response rating, Goosegrass","goosegrass; Preemergence, 16 g ai/ha",65
same,"Plant response rating, Goosegrass","goosegrass; Preemergence, 31 g ai/ha",100
same,Johnsongrass plant response rating,"johnsongrass; 62 g ai/ha, Preemergence",100
same,Johnsongrass plant response rating,"johnsongrass; 125 g ai/ha, preemergence",100
same,"Plant response rating, Johnsongrass","johnsongrass; Preemergence, 16 g ai/ha",70
same,"Plant response rating, Johnsongrass","johnsongrass; Preemergence, 31 g ai/ha",100
same,Kochia plant response rating,"kochia; 62 g ai/ha, Preemergence",100
same,Kochia plant response rating,"kochia; 125 g ai/ha, preemergence",100
same,"Plant response rating, Kochia","kochia; Preemergence, 16 g ai/ha",0
same,"Plant response rating, Kochia","kochia; Preemergence, 31 g ai/ha",30
same,Purple Nutsedge plant response rating,"purple nutsedge; 125 g ai/ha, preemergence",75
same,"Plant response rating, Purple Nutsedge",purple nutsedge; 16 g ai/ha,20
same,"Plant response rating, Purple Nutsedge",purple nutsedge; 31 g ai/ha,35
same,Dallisgrass plant response rating,"dallisgrass; 62 g ai/ha, Preemergence",100
same,Dallisgrass plant response rating,"dallisgrass; 125 g ai/ha, preemergence",100
same,"Plant response rating, Dallisgrass","dallisgrass; Preemergence, 16 g ai/ha",0
same,"Plant response rating, Dallisgrass","dallisgrass; Preemergence, 31 g ai/ha",100
same,Signalgrass plant response rating,"broadleaf signalgrass; 62 g ai/ha, Preemergence",100
same,Signalgrass plant response rating,"broadleaf signalgrass; 125 g ai/ha, preemergence",100
same,"Plant response rating, Signalgrass","broadleaf signalgrass; Preemergence, 31 g ai/ha",50
same,Dayflower plant response rating,"Virginia dayflower; 62 g ai/ha, Preemergence",100
same,Dayflower plant response rating,"Virginia dayflower; 125 g ai/ha, preemergence",100
same,"Plant response rating, Dayflower","Virginia dayflower; Preemergence, 16 g ai/ha",0
same,"Plant response rating, Dayflower","Virginia dayflower; Preemergence, 31 g ai/ha",95
same,Itchgrass plant response rating,"itchgrass; 62 g ai/ha, Preemergence",75
same,Itchgrass plant response rating,"itchgrass; 125 g ai/ha, preemergence",95
same,"Plant response rating, Itchgrass","itchgrass; Preemergence, 16 g ai/ha",0
same,"Plant response rating, Itchgrass","itchgrass; Preemergence, 31 g ai/ha",30
